Measurements published in US20230255943A1, “MMP-9 AND MMP-12 INHIBITION FOR TREATING SPINAL CORD INJURY OR RELATED INJURY TO NEUROLOGICAL TISSUE” (The University of Birmingham, priority 2020, published 2023).

Legend:
[1] = tested on: mice with DC crush injury; test: Electrophysiology: compound action potentials (CAP) across DC lesion in mice; format: in vivo, mouse
Experimental: Compound action potentials (CAP) were recorded at 6 w weeks after DC injury and treatment, as described previously—for example B. C. Hains, C. Y. Saab, A. C. Lo, S. G. Waxman, Sodium channel blockade with phenytoin protects spinal cord axons, enhances axonal conduction, and improves functional motor recovery after contusion SCI. Exp Neurol 188, 365-377 (2004).
Briefly, the experimenter was masked to the treatment status of the animals and the CAP amplitude was calculated between the negative deflection after the stimulus artifact and the next peak of the wave. CAP area was also calculated by rectifying the CAP component (full-wave rectification) and measuring its area. To confirm our recordings and that a CAP could not be recorded, the dorsal half of the spinal cord was transected after each experiment between the stimulating and recording electrodes.

mice with CC SCI = test: Assessment of neuropathic pain (mechanical, thermal, cold allodynia) in CC model; format: in vivo, mouse
Experimental: CC SCI was administered at the T7-T8 vertebral level after exposure of T6-T9 by laminectomy. The aneurysm clip applicator was oriented in a bilateral direction and an aneurysm clip with a closing force of 24 g was applied extradurally for 60 s, as described previously (A. S. Rivlin, C. H. Tator, Effect of duration of acute spinal cord compression in a new acute cord injury model in the rat. Surg Neurol 10, 38-43 (1978):E. Esposito, I. Paterniti, E. Mazzon, T. Genovese, M. Galuppo, R. Meli, P. Bramanti, S. Cuzzocrea, MK801 attenuates secondary injury in a mouse experimental compression model of spinal cord trauma. BMC Neurosci 12, 31 (2011)).
The urinary bladders were manually emptied twice daily until bladder function was regained. Adult male C57BL6 mice (25-30 g) (Charles River, Margate, UK) were randomly allocated to either: (1), Sham (control; laminectomy but no CC SCI); (2), CC SCI+vehicle; (3), CC SCI+200 mg/kg AZD1236 (oral); (4), CC SCI+5 mg/kg AZD1236 (it). All experiments were performed with n=6 mice/group and repeated on 3 independent occasions (total=18 mice/group/test).
Mechanical allodynia was measured in mice using a series of von Frey filaments (0.25 g-15 g) applied to the plantar surface of the hind-paw by an experimenter masked to the treatment conditions and withdrawal of the paw was recorded as a positive response (F. Nasirinezhad, S. Gajavelli, B. Priddy, S. Jergova, J. Zadina, J. Sagen, Viral vectors encoding endomorphins and serine histogranin attenuate neuropathic pain symptoms after spinal cord injury in rats. Mol Pain 11, 2 (2015)).
The hair with the lowest force required to elicit a paw withdrawal response was recorded. […]
Thermal hyperalgesia was tested using established methods of plantar heat sensitivity tests described previously (S. Surey, M. Berry, A. Logan, R. Bicknell, Z. Ahmed, Differential cavitation, angiogenesis and wound-healing responses in injured mouse and rat spinal cords. Neuroscience 275, 62-80 (2014)). […] The reaction time of paw withdrawal was recorded for five separate tests for each hind limb with a 30-s interval before re-testing on the same paw. […]
Cold allodynia was measured by an experimenter masked to the treatment conditions as the number of foot withdrawal responses after application of an acetone drop to the plantar surface of the paw (F. Nasirinezhad, S. Gajavelli, B. Priddy, S. Jergova, J. Zadina, J. Sagen, Viral vectors encoding endomorphins and serine histogranin attenuate neuropathic pain symptoms after spinal cord injury in rats. Mol Pain 11, 2 (2015)). Testing was repeated five times with an interval of 5 min between each test and the response frequency to acetone was expressed as a percent response frequency ([number of paw withdrawals/number of trials]×100).

SMILES: C[C@]1(CS(=O)(=O)N2CC=C(C#Cc3cnc(C4CC4)nc3)CC2)NC(=O)NC1=O [AZD1236]
- dorsum cord potentials, CAP amplitudes, CAP areas, 24-h delayed treatment ([1]; optimal doses, 24 h delay vs immediate): equally as effective as immediate delivery
- CAP area relative to Sham-treated controls ([1]; oral): 80%
- CAP wave ([1]; oral 200 mg/kg, 6 weeks after DC injury): restored a significant CAP wave
- mean CAP amplitude ([1]; oral, all stimulation intensities): significantly larger CAP amplitudes
- CAP area ([1]; oral, sham 0.65±0.02, DC+vehicle 0.06±0.02): 0.52±0.09 mV×ms
- cold allodynia, improvement (mice with CC SCI; oral delivery): > 80 % of sham-treated controls
- mechanical allodynia, improvement (mice with CC SCI; oral delivery): > 80 % of sham-treated controls
- thermal allodynia, improvement (mice with CC SCI; oral delivery): > 80 % of sham-treated controls
- improvements in mechanical, thermal and cold allodynia vs pregabalin and gabapentin (mice with CC SCI; pregabalin 30 mg/kg, gabapentin 100 mg/kg): significantly better
